Measured values taken from patent publication US10888549B2, “Pharmaceutical agents targeting cancer stem cells” (THE JOHNS HOPKINS UNIVERSITY, priority 2016, dated 2021).

Assays:
[1] = test system: SOX2; assay: SOX2 expression by western blotting / flow cytometry; type: cell-based, human
Method: (§1) Whole cell lysates were extracted using RIPA buffer (Thermo Scientific) supplemented with 10 μL/mL Halt™ Protease Inhibitor Cocktail Kit (Life Technologies) and 30 μL/mL Halt™ Phosphatase Inhibitor Cocktail Kit (Life Technologies). The protein concentrations were determined using a Pierce™ BCA Protein Assay Kit (Life Technologies), and the protein were separated on NuPAGE® 4-12% Bis-Tris Gel (Life Technologies) according to the manufacturer's protocol. COX2 (D5H5), NANOG (D73G4), OCT4 (D7O5Z), CD133 (A3G6K), Snail (C15D3), ZEB1 (D80D3), Vimentin (D21H3), CDH2 (D4R1H), CDH1 (24E10), p-EGFR (D7A5), EGFR (D38B1), p-AKT (D9E), AKT (cat #, 9272), p-ERK (D13.14.4E), ERK (137F5), p-YAP1 (D9W2I), p-Src (cat #, 2101), Src (36D10), DNMT1 (D63A6), DNMT3A (D23G1), and DNMT3B (D7O7O) antibodies were obtained from Cell Signaling Technology (Danvers, Mass., USA), except for SOX2 (EPR3131; Abcam, Cambridge, USA), YAP1 (ab52771; Abcam), CD24 (cat #, AF5247-SP; R&D Systems, Minneapolis USA) and β-actin (A2228; Sigma-Aldrich). Secondary horseradish peroxidase (HRP)-conjugated antibodies were obtained from Cell Signaling Technology, and chemiluminescent detection of HRP-labeled antibodies was performed using Amersham ECL Prime Western Blotting Detection Reagent (GE Healthcare, Piscataway, USA). As loading control, β-actin was used.
For extracellular staining, cells (1×10^6/100 μL stain buffer) were incubated with PE-Vio770-conjugated anti-human CD133 (293C3; Miltenyi Biotec, Auburn, USA) or PE-conjugated anti-human CD24 antibody (cat #, 560991; BD Biosciences) for 30 min at 4° C. in dark. PE-Vio770-conjugated Isotype (cat #, 130-098-563; Miltenyi Biotec) and PE-conjugated IgG2a, κ Isotype (cat #, 555574; BD Biosciences) were used as control for CD133 and CD24 staining, respectively. Staining for intracellular SOX2 was carried out using the BD Cytofix/Cytoperm Fixation/Permeabilization Kit (BD Biosciences) according to manufacturer's protocol. The cells were incubated with Alexa Fluor 647-conjugated anti-SOX2 antibody (cat #, 560302; BD Biosciences) for 40 min at 4° C. in dark. Alexa Fluor 647-conjugated anti-IgG2a, κ Isotype (cat #, 558053; BD Biosciences) was used as control. Data were acquired on a BD FACSCalibur flow cytometer (BD Biosciences) using BD CellQuest Pro software (BD Biosciences) and analyzed with FlowJo software v10.1 (Tree Star, Ashland, USA).

[2] = test system: urothelial CSCs; assay: Sphere formation assay (CSC properties); type: cell-based, human; details: for sphere formation / sphere-forming ability: agent alone, bladder cancer cells
Method: Sphere formation was induced by culturing cells (2×10^4/well) in DMEM/Ham's F12 50/50 Mix (Mediatech) supplemented with B-27 (Life Technologies), 20 ng/mL FGF-basic (Peprotech), 20 ng/mL EGF (Peprotech). Cell culture was performed in ultra-low attachment 6 well plates (Corning, Lowell, USA) for 10 days. The medium was replaced every other day. Sphere formation was evaluated using the inverted phase-contrast microscope, and single sphere with a diameter larger than 100 μm was counted using NIS-Elements Microscope Imaging Software. To redifferentiate spheres, spheres were plated in standard growth medium with 10% FBS in dishes supporting cell attachment, and incubated for 7 days. For self-renewal assay, primary spheres were collected by gentle centrifugation (5 min at 400×g), dissociated with Stempro Accutase Cell Dissociation Reagent (Life Technologies), and mechanically disrupted with a pipette. The cell suspension was sieved through 40 μm cell strainer cap filter to achieve a single-cell suspension, and then equal numbers of alive cells were plated in ultralow attachment plates to generate the second spheres. Again, spheres were counted on day 14 and digested to generate the third Spheres. All the experiments were performed in triplicate and repeated at least three times.

[3] = test system: YAP1; assay: YAP1 expression by western blotting; type: cell-based, human
Method: as §1

[4] = test system: COX2; assay: COX2 expression by western blotting; type: cell-based, human; details: agent alone; bladder cancer cells
Method: Whole cell lysates were extracted using RIPA buffer (Thermo Scientific) supplemented with 10 μL/mL Halt™ Protease Inhibitor Cocktail Kit (Life Technologies) and 30 μL/mL Halt™ Phosphatase Inhibitor Cocktail Kit (Life Technologies). […] Secondary horseradish peroxidase (HRP)-conjugated antibodies were obtained from Cell Signaling Technology, and chemiluminescent detection of HRP-labeled antibodies was performed using Amersham ECL Prime Western Blotting Detection Reagent (GE Healthcare, Piscataway, USA). As loading control, β-actin was used.

[5] = test system: let-7; assay: let-7 expression by Q-RT-PCR; type: cell-based, human; details: parental or spheroid bladder cancer cells
Method: Total RNA from cell lines was isolated using the RNeasy Plus Mini kit (Qiagen, Valencia, USA) according to the manufacturer's protocol. Total RNA extraction from bladder tissue was performed with the QIAzol Lysis Reagent (Qiagen) followed by phenol extraction and ethanol precipitation. Total RNA was eluted in DEPC treated water and stored at -80° C. Total RNA extraction from urine was performed using the […] Isolation Kit (Ambion, Austin, USA). These total RNA were converted to cDNA using the SuperScript III First-Strand Synthesis System (Life technologies, Carlsbad, USA), which was then used as a template for Q-RT-PCR. Q-RT-PCR was performed using the Fast SYBR Green Master Mix (Thermo Fisher Scientific, Waltham, USA) on a 7900HT Fast Real-Time PCR System (Life technologies) in triplicate. Micro RNA (miRNA) extraction was performed using the […] Isolation Kit, and was reverse transcribed using TaqMan reverse transcription kit (Applied Biosystems, Foster City, USA) and miRNA-specific RT primers provided with TaqMan microRNA assays (Applied Biosystems). Q-RT-PCR for miRNAs was performed using the TaqMan Universal PCR Master Mix according to the manufacturer's protocol. SDS software (Applied Biosystems) was used to determine cycle threshold (Ct) values. Expression level was quantified relative to β-actin for mRNA and RNU6B for miRNA using the 2-ΔΔCt method (12).

[6] = test system: DNMT 1 and 3A; assay: Western blotting of DNMTs; type: cell-based, human
Method: as §1

[7] = test system: MIRLET7BHG promoter; assay: Bisulfite sequencing of let-7 host gene promoter; type: cell-based, human; details: bladder cancer cells
Method: Cell pellets were digested with 1% sodium dodecyl sulfate and 50 μg/mL proteinase K (Roche, Nutley, USA) at 48° C. overnight. Isolation of genomic DNA from cell lines was performed with the phenol-chloroform extraction protocol followed by ethanol precipitation. Bisulfite treatment was conducted using an EpiTect Bisulfite Kit (QIAGEN, Valencia, USA), and was subsequently amplified via PCR using primers as shown in the following table. PCR products were purified using the QIAquick Gel Extraction kit (Qiagen), and sequenced by Genewiz DNA sequencing service (Genewiz, South Plainfield, USA). The data were analyzed using the Sequence Scanner v1.0 software (Life technologies). A methylation frequency of ≥50% of total CpG sites within the amplified region was considered “methylation-positive”. For demethylation, cells (1×10^6/T-75 flask) were treated with […] of the demethylating agent 5-Aza-dC (Sigma) dissolved in 50% acetic acid or were mock-treated with phosphate buffered saline (PBS) including the same amount of acetic acid every 24 hours for 5 days. When combined with the histone deacetylase inhibitor TSA (Sigma), 300 nmol/L TSA was added to the medium for the final 24 hours.

[8] = test system: panel of miRNAs; assay: Expression of a panel of miRNAs in BFTC 905 cells; type: cell-based, human
Method: Total RNA from cell lines was isolated using the RNeasy Plus Mini kit (Qiagen, Valencia, USA) according to the manufacturer's protocol. Total RNA extraction from bladder tissue was performed with the QIAzol Lysis Reagent (Qiagen) followed by phenol extraction and ethanol precipitation. Total RNA was eluted in DEPC treated water and stored at −80° C. Total RNA extraction from urine was performed using the MirVana miRNA Isolation Kit (Ambion, Austin, USA). These total RNA were converted to cDNA using the SuperScript III First-Strand Synthesis System (Life technologies, Carlsbad, USA), which was then used as a template for Q-RT-PCR. Q-RT-PCR was performed using the Fast SYBR Green Master Mix (Thermo Fisher Scientific, Waltham, USA) on a 7900HT Fast Real-Time PCR System (Life technologies) in triplicate. Micro RNA (miRNA) extraction was performed using the MirVana miRNA Isolation Kit, and was reverse transcribed using TaqMan reverse transcription kit (Applied Biosystems, Foster City, USA) and miRNA-specific RT primers provided with TaqMan microRNA assays (Applied Biosystems). Q-RT-PCR for miRNAs was performed using the TaqMan Universal PCR Master Mix according to the manufacturer's protocol. SDS software (Applied Biosystems) was used to determine cycle threshold (Ct) values. Expression level was quantified relative to β-actin for mRNA and RNU6B for miRNA using the 2-ΔΔCt method (12).

[9] = Body weight of treated mice; type: in vivo; details: mouse, in vivo
Method: For celecoxib and/or VP treatment, celecoxib (5 mg/kg) was administered via intraperitoneal (i.p.) injection once a day (17), and VP (50 mg/kg) was administered via i.p. every other day (18). EP4 antagonist ONO-AE3-208 (10 mg/kg) was administered via i.p. once a day (19). Control was applied with same volume (100 μL per injection) of 10% dimethyl sulphoxide in […] (Sigma-Aldrich). For GEM and CDDP (GC) treatment (i.p.), CDDP (6 mg/kg) was only applied after the first GEM (60 mg/kg) treatment on day 2, followed by three consecutive treatments of GEM on day 5, 8 and 11 (17). The next cycle was started on day 18, and the treatment was continued until tumor reached 2 cm in diameter. For erlotinib treatment, the mice were treated once a day, 6 days per week, by oral gavage with erlotinib (100 mg/kg) or control (PBS containing 0.5% methyl cellulose (Sigma-Aldrich) and 0.1% TWEEN 80) (20). Tumor size was measured at least every three days. […] To establish xenograft model with acquired resistance to erlotinib, erlotinib sensitive 5637 cells were injected subcutaneously into the both flanks of 4-5 week-old NSG mice, and the tumors were consecutively passaged from NSG mice treated with erlotinib and celecoxib until the development of refractory tumors. […]

[10] = agent alone, bladder cancer cells
[11] = PGE2 added to celecoxib-treated cells

## CC(C(=O)Nc1cc(C#N)ccc1CCCC(=O)O)c1ccc(F)c2ccccc12 (centres unmarked) [EP4-specific antagonist, ONO-AE3-208]
[1]; [10]
  SOX2 expression: dramatic reduction
[2]
  sphere formation / sphere-forming ability: dramatic reduction

## CC(C)(C)n1nc(-c2ccc(Cl)cc2)c2c(N)ncnc21 [Src inhibitor, PP2]
[3]; Src inhibitor added to COX2 inhibitor-treated cells
  YAP1 expression: downregulated

## N.N.[Cl][Pt][Cl] [cisplatin, Cisplatin]
[1]; [10]
  SOX2 expression: overexpression
[4]
  COX2 expression: overexpression
[3]; [10]
  YAP1 expression: overexpression
[2]
  sphere formation / sphere-forming ability: increased

## CCCCC[C@H](O)/C=C/[C@H]1[C@H](O)CC(=O)[C@@H]1C/C=C\CCCC(=O)O [PGE2, Prostaglandin E2]
[1]; [11]
  SOX2 expression: restored
[5]
  let-7 expression: reduced
[6]
  DNMT 1 and 3A expression: upregulated
[7]
  promoter methylation of the let-7 host gene: Promoter methylation of the let-7 host gene was observed
[8]
  expression of several miRNAs: reduced
[2]; [11]
  sphere-forming ability: restored

## Nc1ncn([C@H]2C[C@H](O)[C@@H](CO)O2)c(=O)n1 [5-Aza-dC, 5-Aza-2′-deoxycytidine]
[5]
  let-7 expression: restoration
[7]
  promoter methylation of the let-7 host gene: demethylated

## C=Cc1c(C)c2cc3nc(cc4[nH]c(cc5nc(cc1[nH]2)C(C)=C5CCC(=O)O)c(CCC(=O)OC)c4C)[C@@]1(C)C3=CC=C(C(=O)OC)[C@H]1C(=O)OC [VP, 3-[(23S,24R)-14-ethenyl-5-(3-methoxy-3-oxopropyl)-22,23-bis(methoxycarbonyl)-4,10,15,24-tetramethyl-25,26,27,28-tetraazahexacyclo[16.6.1.1^3,6.1^8,11.1^13,16.0^19,24]octacosa-1,3,5,7,9,11(27),12,14,16,18(25),19,21-dodecaen-9-yl]propanoic acid]
[1]; [10]
  SOX2 expression: reduced
[9]
  body weight loss of mice: did not observe body weight loss
[4]
  COX2 expression: induced

## CCc1cccc2c3c([nH]c12)C(CC)(CC(=O)O)OCC3 (centres unmarked) [etodolac, Etodolac]
[1]; [10]
  SOX2 expression: dramatic reduction
[2]
  sphere formation / sphere-forming ability: dramatic reduction
